Measurements as given in patent US20080176936A1, “Classes of Compounds that Interact with Integrins” (priority 2005, published 2008).

Tests used:
[1] = biological target: T1, αllbβ3 integrin (Homo sapiens, UniProt P05106+P08514); assay: ELISA: inhibition of binding of αllbβ3 integrin membrane preparation to coated extracellular matrix protein; settings: human platelet membrane preparation
T1 construct: Human platelet membrane preparations were used as a source of αllbβ3 integrin; from tissue; host or cells: human platelets (membrane preparation)
T1 sequence (P08514 32-887 limits assumed): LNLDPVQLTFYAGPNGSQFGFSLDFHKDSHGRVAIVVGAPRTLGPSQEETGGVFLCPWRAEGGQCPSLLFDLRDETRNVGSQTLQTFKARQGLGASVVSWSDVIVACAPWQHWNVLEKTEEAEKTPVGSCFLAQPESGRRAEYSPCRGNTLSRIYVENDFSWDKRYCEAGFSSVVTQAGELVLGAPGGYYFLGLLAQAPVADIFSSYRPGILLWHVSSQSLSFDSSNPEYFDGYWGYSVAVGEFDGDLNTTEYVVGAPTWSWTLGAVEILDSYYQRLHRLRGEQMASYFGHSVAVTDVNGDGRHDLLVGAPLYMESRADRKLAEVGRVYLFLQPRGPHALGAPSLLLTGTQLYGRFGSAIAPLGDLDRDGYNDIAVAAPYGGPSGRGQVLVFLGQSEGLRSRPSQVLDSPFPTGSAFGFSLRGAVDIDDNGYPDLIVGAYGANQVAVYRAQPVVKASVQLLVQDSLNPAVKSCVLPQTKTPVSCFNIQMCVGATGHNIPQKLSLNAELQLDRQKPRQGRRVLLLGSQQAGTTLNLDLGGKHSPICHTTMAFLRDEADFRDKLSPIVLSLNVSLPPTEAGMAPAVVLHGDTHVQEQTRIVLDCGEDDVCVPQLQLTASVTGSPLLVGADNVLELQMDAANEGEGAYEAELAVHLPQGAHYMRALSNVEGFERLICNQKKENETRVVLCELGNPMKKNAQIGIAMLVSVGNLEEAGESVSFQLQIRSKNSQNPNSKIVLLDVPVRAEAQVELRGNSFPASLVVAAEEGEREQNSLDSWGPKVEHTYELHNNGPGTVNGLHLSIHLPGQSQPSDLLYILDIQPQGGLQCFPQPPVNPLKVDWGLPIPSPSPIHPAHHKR
T1 sequence (P08514 891-1039 partner limits assumed): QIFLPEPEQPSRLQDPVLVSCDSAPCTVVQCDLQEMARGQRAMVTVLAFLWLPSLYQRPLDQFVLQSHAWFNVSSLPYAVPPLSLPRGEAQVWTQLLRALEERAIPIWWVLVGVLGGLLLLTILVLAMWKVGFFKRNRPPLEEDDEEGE
T1 sequence (P05106 27-788): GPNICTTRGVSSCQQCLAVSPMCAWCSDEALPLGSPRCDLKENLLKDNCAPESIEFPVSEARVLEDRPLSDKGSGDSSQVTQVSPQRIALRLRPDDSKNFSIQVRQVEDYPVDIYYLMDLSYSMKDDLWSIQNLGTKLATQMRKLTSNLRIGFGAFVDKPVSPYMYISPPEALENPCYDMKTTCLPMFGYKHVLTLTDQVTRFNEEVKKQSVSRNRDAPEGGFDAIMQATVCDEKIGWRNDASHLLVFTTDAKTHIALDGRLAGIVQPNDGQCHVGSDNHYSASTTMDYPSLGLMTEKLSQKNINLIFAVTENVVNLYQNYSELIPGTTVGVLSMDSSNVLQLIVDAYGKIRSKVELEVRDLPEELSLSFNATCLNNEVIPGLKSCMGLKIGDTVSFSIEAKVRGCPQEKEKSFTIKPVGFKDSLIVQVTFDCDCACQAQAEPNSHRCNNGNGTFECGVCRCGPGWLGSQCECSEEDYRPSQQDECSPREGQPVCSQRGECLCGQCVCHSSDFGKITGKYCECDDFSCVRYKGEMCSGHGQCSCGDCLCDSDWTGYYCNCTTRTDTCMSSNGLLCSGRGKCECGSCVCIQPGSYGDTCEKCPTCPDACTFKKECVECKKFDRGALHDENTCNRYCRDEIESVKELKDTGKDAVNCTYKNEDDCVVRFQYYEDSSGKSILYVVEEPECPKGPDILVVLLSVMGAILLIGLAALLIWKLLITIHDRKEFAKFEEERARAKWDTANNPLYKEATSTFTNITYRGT
Protocol: (§1) An ELISA assay based on the published method of Bethert et al., 2000, J Biol Chem 275, 33308-23, was employed.
(§2) Briefly, appropriate microtitre plates were coated with either Fibrinogen or Vitronectin (10 μg/well). These extracellular matrix proteins contain the RGD amino acid sequence that is recognized by αllbβ3 integrin. Human platelet membrane preparations were used as a source of αllbβ3 integrin and the cell line WM-115 was used as a source of αVβ3 integrin. Inhibition of the binding of αllbβ3 integrin containing membrane preparations to the extracellular matrix protein was determined by pre-incubating the platelet membrane preparation with test or control compounds. The binding of the αllbβ3 integrin containing membrane was the quantitated by using a rabbit anti-integrinβ3 antibody, a horse radish peroxidase coupled second antibody and a standard colorimetric detection system.

[2] = biological target: T2, αVβ3 integrin (Homo sapiens, UniProt P05106+P06756); assay: ELISA: inhibition of binding of αVβ3 integrin (source WM-115 cell line) to coated extracellular matrix protein; settings: WM-115 cell line as integrin source
T2 construct: the cell line WM-115 was used as a source of αVβ3 integrin; endogenous in cells; host or cells: WM-115 cell line
T2 sequence (P06756 31-889 limits assumed): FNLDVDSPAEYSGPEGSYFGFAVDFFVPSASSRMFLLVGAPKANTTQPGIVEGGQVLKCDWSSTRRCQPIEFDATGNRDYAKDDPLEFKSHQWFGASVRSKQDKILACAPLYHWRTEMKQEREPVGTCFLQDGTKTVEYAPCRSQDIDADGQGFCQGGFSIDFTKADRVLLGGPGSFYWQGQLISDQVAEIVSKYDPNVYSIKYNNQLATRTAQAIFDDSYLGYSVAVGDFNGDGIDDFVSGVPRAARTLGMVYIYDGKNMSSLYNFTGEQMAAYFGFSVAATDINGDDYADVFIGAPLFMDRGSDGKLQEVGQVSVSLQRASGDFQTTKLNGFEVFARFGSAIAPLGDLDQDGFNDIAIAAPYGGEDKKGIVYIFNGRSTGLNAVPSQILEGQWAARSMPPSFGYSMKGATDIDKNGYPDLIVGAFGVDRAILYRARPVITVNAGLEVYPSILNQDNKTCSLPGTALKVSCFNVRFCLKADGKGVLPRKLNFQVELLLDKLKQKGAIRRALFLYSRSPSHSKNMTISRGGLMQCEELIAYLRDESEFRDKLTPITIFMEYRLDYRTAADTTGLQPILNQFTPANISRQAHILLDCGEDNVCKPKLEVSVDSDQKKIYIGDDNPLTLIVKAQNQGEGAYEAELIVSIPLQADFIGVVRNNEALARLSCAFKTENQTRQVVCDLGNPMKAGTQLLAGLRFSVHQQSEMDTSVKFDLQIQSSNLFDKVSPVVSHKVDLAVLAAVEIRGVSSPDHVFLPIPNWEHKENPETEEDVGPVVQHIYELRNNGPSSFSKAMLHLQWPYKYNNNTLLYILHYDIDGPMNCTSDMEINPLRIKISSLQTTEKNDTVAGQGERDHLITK
T2 sequence (P06756 891-1048 partner limits assumed): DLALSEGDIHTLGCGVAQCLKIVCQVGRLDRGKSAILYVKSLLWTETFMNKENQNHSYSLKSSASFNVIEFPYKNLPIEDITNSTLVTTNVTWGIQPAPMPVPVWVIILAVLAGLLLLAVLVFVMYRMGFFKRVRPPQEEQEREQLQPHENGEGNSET
T2 sequence (P05106 27-788): as the sequence (P05106 27-788) above
Protocol: as §1, §2

Compound | INHIBITION @ 250 uM RECEPTOR allBb3 SUBSTRATE FIBRINOGEN [1] | INHIBITION 250 uM RECEPTOR allBb3 SUBSTRATE VITRONECTIN [1] | INHIBITION 250 uM RECEPTOR aVb3 SUBSTRATE FIBRINOGEN [2]
CCOC1OC(COCC(=O)O)C(O)C(OCc2cccc(N)c2)C1NC(=O)c1ccc(Cl)cc1 (single isomer, unassigned) [Compound 77] | ++ (61% to 80% inhibition at 250 micromolar) | +++ (81% to 100% inhibition at 250 micromolar) | + (36% to 60% inhibition at 250 micromolar)
CCOC1OC(COCC(=O)O)C(O)C(OCc2ccccc2)C1NC(=O)CNC(=N)N (single isomer, unassigned) [Compound 119] | − (0% to 35% inhibition at 250 micromolar) | +++ (81% to 100% inhibition at 250 micromolar) | − (0% to 35% inhibition at 250 micromolar)
Nc1cccc(COC2C(O)C(COCc3ccccc3)OC(O)C2NC(=O)c2ccc(C(=O)O)cc2)c1 (single isomer, unassigned) [Compound 71] | − (0% to 35% inhibition at 250 micromolar) | +++ (81% to 100% inhibition at 250 micromolar) | +++ (81% to 100% inhibition at 250 micromolar)
CCOCC1OC(OCc2ccccc2)C(NC(=O)CCNC(=N)N)C(OCC(=O)O)C1O (single isomer, unassigned) [Compound 93] | − (0% to 35% inhibition at 250 micromolar) | +++ (81% to 100% inhibition at 250 micromolar) | +++ (81% to 100% inhibition at 250 micromolar)
COC1OC(COCc2ccccc2)C(O)C(OCc2ccc(C(=O)O)cc2)C1NC(=O)CCNC(=N)N (single isomer, unassigned) [Compound 12] | ++ (61% to 80% inhibition at 250 micromolar) | ++ (61% to 80% inhibition at 250 micromolar) | − (0% to 35% inhibition at 250 micromolar)
CCOC1O[C@H](COCc2cccc(N)c2)[C@@H](O)[C@H](OCc2ccc(C(=O)O)cc2)[C@H]1NC(=O)c1ccc(Cl)cc1 (stereo partly drawn) [Compound 65] | − (0% to 35% inhibition at 250 micromolar) | +++ (81% to 100% inhibition at 250 micromolar) | − (0% to 35% inhibition at 250 micromolar)
CCC(=O)NC1C(OCc2ccccc2)OC(COCc2cccc(N)c2)C(O)C1OCc1ccc(C(=O)O)cc1 (single isomer, unassigned) [Compound 104] | − (0% to 35% inhibition at 250 micromolar) | +++ (81% to 100% inhibition at 250 micromolar) | − (0% to 35% inhibition at 250 micromolar)
CCOC1O[C@H](COCc2ccc(Br)cc2)[C@@H](O)[C@H](OCC(=O)O)[C@H]1NC(=O)CCNC(=N)N (single isomer, unassigned) [Compound 50] | + (36% to 60% inhibition at 250 micromolar) | +++ (81% to 100% inhibition at 250 micromolar) | +++ (81% to 100% inhibition at 250 micromolar)
CCC(=O)NC1C(OCc2ccccc2)OC(COCc2ccc(C(=O)O)cc2)C(O)C1OCc1cccc(N)c1 (single isomer, unassigned) [Compound 112] | − (0% to 35% inhibition at 250 micromolar) | +++ (81% to 100% inhibition at 250 micromolar) | +++ (81% to 100% inhibition at 250 micromolar)
CCOC1O[C@H](COCc2cccc(N)c2)[C@@H](O)[C@H](OCC(=O)O)[C@H]1NC(=O)c1ccccc1 (single isomer, unassigned) [Compound 55] | + (36% to 60% inhibition at 250 micromolar) | +++ (81% to 100% inhibition at 250 micromolar) | +++ (81% to 100% inhibition at 250 micromolar)
COCC1OC(OCc2ccccc2)C(NC(=O)c2ccc(C(=O)O)cc2)C(OCc2cccc(N)c2)C1O (single isomer, unassigned) [Compound 106] | + (36% to 60% inhibition at 250 micromolar) | +++ (81% to 100% inhibition at 250 micromolar) | − (0% to 35% inhibition at 250 micromolar)
COC1OC(COCC(=O)O)C(O)C(OCc2cccc(N)c2)C1NC(=O)c1ccccc1 (single isomer, unassigned) [Compound 28] | + (36% to 60% inhibition at 250 micromolar) | +++ (81% to 100% inhibition at 250 micromolar) | +++ (81% to 100% inhibition at 250 micromolar)
CCOC1OC(COCC(=O)O)C(O)C(OCc2ccccc2)C1NC(=O)CCNC(=N)N (single isomer, unassigned) [Compound 122] | ++ (61% to 80% inhibition at 250 micromolar) | ++ (61% to 80% inhibition at 250 micromolar) | − (0% to 35% inhibition at 250 micromolar)
CCOC1O[C@H](COCc2cccc(N)c2)[C@@H](O)[C@H](OCc2ccc(Br)cc2)[C@H]1NC(=O)CCC(=O)O (single isomer, unassigned) [Compound 45] | ++ (61% to 80% inhibition at 250 micromolar) | +++ (81% to 100% inhibition at 250 micromolar) | +++ (81% to 100% inhibition at 250 micromolar)
CCOC1OC(COCC(=O)O)C(O)C(OCc2ccccc2)C1NC(=O)CNC(=N)N (single isomer, unassigned) [Compound 118] | − (0% to 35% inhibition at 250 micromolar) | +++ (81% to 100% inhibition at 250 micromolar) | − (0% to 35% inhibition at 250 micromolar)
CCOC1C(O)C(COCc2ccc(C(=O)O)cc2)OC(OCc2ccccc2)C1NC(=O)CCNC(=N)N (single isomer, unassigned) [Compound 86] | − (0% to 35% inhibition at 250 micromolar) | +++ (81% to 100% inhibition at 250 micromolar) | − (0% to 35% inhibition at 250 micromolar)
